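96-well plates; 48 h exposure; 5 concentrations. Endpoints by linear interpolation between flanking doses. Not reached: highest tested concentration assigned. At the GI50, growth is halved. TGI marks complete inhibition of growth.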

Among the test systems are MALME-3M melanoma; HT29 colon; IGROV1 ovarian; 786-0 renal; SK-MEL-5 melanoma; A549 NSCLC; SN12C renal; TK-10 renal.
Common to all, as to assay: NCI tumour cell line growth inhibition, 48 h

On to `COC1=CC(=O)C(Br)=CC1=O`, for which the TGI in the test with MALME-3M melanoma is 35.6 µM; in the test on HT29 colon, 35.6 µM; in the test with IGROV1 ovarian, 31.1 µM; with 786-0 renal, 32.9 µM; with SK-MEL-5 melanoma it was 34.5 µM; in the test with A549 NSCLC it was above 100 µM. For the same compound, the TGI amounted to 33.3 µM with SN12C renal and 35.8 µM in the test on TK-10 renal.
Regarding `O=C(N/C(=C\c1c(O)ccc2ccccc12)c1nc2ccccc2[nH]1)c1ccccc1`, the TGI in the test with MALME-3M melanoma, in the test with HT29 colon, in the test with IGROV1 ovarian, with 786-0 renal, in the test on SK-MEL-5 melanoma and in the test on A549 NSCLC was above 100 µM throughout. Also, the TGI in the test with SN12C renal and in the test with TK-10 renal was above 100 µM each time.
Consider `Cn1cnc([N+](=O)[O-])c1Sc1nnnn1C`, for which the TGI in the test with MALME-3M melanoma is 26.9 µM; in the test with HT29 colon, 40.5 µM; in the test with IGROV1 ovarian it was 49.1 µM; in the test on 786-0 renal, 32.1 µM; in the test on SK-MEL-5 melanoma, 31.6 µM; in the test with A549 NSCLC, above 100 µM. Also, the TGI is 32.1 µM in the test on SN12C renal and 31.4 µM in the test on TK-10 renal.
In the case of `CCN(CCCl)CCCCCNc1c2ccccc2nc2ccc(OC)cc12`, the TGI in the test with MALME-3M melanoma turned out to be 5.93 µM; in the test on HT29 colon it was 2.94 µM; in the test with IGROV1 ovarian, 4.24 µM; in the test on 786-0 renal, 1.63 µM; with SK-MEL-5 melanoma, 2.69 µM; with A549 NSCLC, 4.4 µM. The figures for the TGI in the test on SN12C renal and in the test with TK-10 renal were 1.78 µM and 44.3 µM, respectively.
Regarding `Cc1ccc(NC(=O)C(=O)C(C(=O)c2ccc3ccccc3c2)C2OC(=O)c3ccccc32)c(C)c1` (stereo not drawn), the TGI in the test on MALME-3M melanoma came out at 22.4 µM; in the test with HT29 colon it was 57.6 µM; with IGROV1 ovarian, 39.9 µM; in the test on 786-0 renal, 19.7 µM; in the test on SK-MEL-5 melanoma, 24 µM; in the test with A549 NSCLC, 62.8 µM. For the same compound, the TGI in the test on SN12C renal is 53.4 µM; in the test with TK-10 renal it was 42.9 µM.
For the compound `COc1cc(O)c(C(=O)CC(C)=O)c(OC)c1`, the TGI with MALME-3M melanoma, in the test with HT29 colon, in the test on IGROV1 ovarian, with 786-0 renal, in the test with SK-MEL-5 melanoma and with A549 NSCLC was above 100 µM each time. Besides, the TGI in the test with SN12C renal and in the test on TK-10 renal was above 100 µM in each case.
Turning to `CCCN(CCC)CCc1cc(C(C)=O)n(S(=O)(=O)c2ccc(C)cc2)c1`, the TGI in the test on MALME-3M melanoma, with HT29 colon, in the test with IGROV1 ovarian, in the test with 786-0 renal, in the test with SK-MEL-5 melanoma and in the test with A549 NSCLC was above 100 µM each time. The TGI in the test on SN12C renal and in the test on TK-10 renal was above 100 µM each time.
In the case of `CN(C)CCNC(=O)c1cccc2nc3ccc4cccnc4c3nc12`, the TGI in the test on HT29 colon was 4.88 µM; in the test with 786-0 renal, 10.9 µM; in the test on SK-MEL-5 melanoma, 1.33 µM; with A549 NSCLC, 9.65 µM; in the test with SN12C renal, 4.31 µM; in the test with TK-10 renal, 0.688 µM.
`COc1cccc2c1C(=O)c1c(O)c3c(c(O)c1C2=O)C[C@@](O)(C(C)=O)C[C@@H]3OC1CC([N+]([O-])(Cc2ccccc2)Cc2ccccc2)C(O)C(C)O1` (stereo partly drawn): the TGI is 3.14 µM with HT29 colon; 4.82 µM with IGROV1 ovarian; 2.86 µM in the test with 786-0 renal; 2.71 µM in the test on SK-MEL-5 melanoma; 5.18 µM in the test on A549 NSCLC; 2.34 µM in the test on SN12C renal. The compound further returned a TGI with TK-10 renal of 3.37 µM.
On to `CSC(=Nc1ccccc1Cl)NC(=O)c1ccc(Br)cc1`, for which the TGI was above 100 µM in the test with MALME-3M melanoma; above 100 µM in the test on HT29 colon; above 100 µM with IGROV1 ovarian; 86.3 µM with 786-0 renal; above 100 µM in the test on A549 NSCLC; above 100 µM in the test with SN12C renal. The TGI in the test with TK-10 renal was above 100 µM.
Take `NCCOCn1cc(Cc2cccc(OCc3ccccc3)c2)c(=O)[nH]c1=O`: the TGI with HT29 colon, in the test on IGROV1 ovarian, with 786-0 renal, with SK-MEL-5 melanoma, in the test with A549 NSCLC and in the test with SN12C renal was above 100 µM throughout. The compound also came in with a TGI with TK-10 renal above 100 µM.
As for `CC(C)=O.O=C([O-])C(F)(F)F.O=C([O-])C(F)(F)F.O=C([O-])C(F)(F)F.O=C([O-])C(F)(F)F.[Rh+2].[Rh+2]`, the GI50 in the test with HT29 colon was above 100000 nM; in the test on IGROV1 ovarian it was above 100000 nM; in the test with 786-0 renal it was 71.5 µM; in the test on SK-MEL-5 melanoma, above 100000 nM; with A549 NSCLC it was above 100000 nM; in the test with SN12C renal, above 100000 nM. The GI50 in the test on TK-10 renal is 81.4 µM. Moreover, the TGI in the test with HT29 colon, in the test with IGROV1 ovarian, in the test on 786-0 renal, in the test with SK-MEL-5 melanoma, in the test with A549 NSCLC and in the test with SN12C renal was above 100 µM each time. The compound further gave a TGI with TK-10 renal above 100 µM.
As for `CCC[CH2][Sn]([CH2]CCC)([CH2]CCC)[O]C(=O)C(OC(C)=O)c1ccccc1` (stereo not drawn), the GI50 is 143 nM in the test with MALME-3M melanoma; 127 nM in the test on HT29 colon; 153 nM in the test with IGROV1 ovarian; 0.157 µM in the test on 786-0 renal; 147 nM in the test with SK-MEL-5 melanoma; 143 nM in the test with A549 NSCLC. In addition, the GI50 with SN12C renal is 144 nM; in the test with TK-10 renal, 0.244 µM. The TGI is 0.274 µM in the test on MALME-3M melanoma; 0.26 µM in the test on HT29 colon; 0.323 µM in the test on IGROV1 ovarian; 0.295 µM in the test on 786-0 renal; 0.28 µM in the test with SK-MEL-5 melanoma; 0.309 µM with A549 NSCLC. In addition, the TGI was found to be 0.275 µM with SN12C renal and 0.888 µM in the test with TK-10 renal.
For `O=C1C=CC(=O)C2C1Cc1ccccc1C2c1ccccc1` (stereo not drawn), the TGI in the test with MALME-3M melanoma, in the test with HT29 colon, with IGROV1 ovarian, with 786-0 renal, in the test with SK-MEL-5 melanoma and with A549 NSCLC was above 100 µM throughout. Also, the TGI in the test on SN12C renal and in the test with TK-10 renal was above 100 µM each time.
On to `O=C(Nc1cc(Cl)ccc1Cl)c1cc2cccc(Br)c2oc1=O`, for which the TGI in the test on MALME-3M melanoma, with HT29 colon, in the test on IGROV1 ovarian, in the test with 786-0 renal, with SK-MEL-5 melanoma and in the test with A549 NSCLC was above 100 µM in each case. The TGI with SN12C renal and with TK-10 renal was above 100 µM each time.
In the case of `S=c1nc(C(c2ccccc2)c2ccccc2)[nH][nH]1`, the TGI in the test on MALME-3M melanoma, in the test on HT29 colon, with IGROV1 ovarian, in the test on 786-0 renal, with SK-MEL-5 melanoma and in the test with A549 NSCLC was above 100 µM in each case. The TGI in the test on SN12C renal and with TK-10 renal was above 100 µM in each case.
As for `CCO/C(CCn1[nH]c(=O)c(Cl)c(Cl)c1=O)=N\NC(=O)C(=O)NN`, the TGI with MALME-3M melanoma, in the test on HT29 colon, with IGROV1 ovarian, with 786-0 renal, in the test on SK-MEL-5 melanoma and in the test on A549 NSCLC was above 100 µM in each case. Also, the TGI with SN12C renal and in the test on TK-10 renal was above 100 µM in each case.
As for `COc1ccc2c3c(c(C(=O)O)oc13)CCC2`, the TGI in the test with MALME-3M melanoma, in the test with HT29 colon, in the test on IGROV1 ovarian, in the test on 786-0 renal, in the test with SK-MEL-5 melanoma and in the test on A549 NSCLC was above 100 µM throughout. Also, the TGI in the test with SN12C renal and in the test on TK-10 renal was above 100 µM each time.
Turning to `O=c1/c(=C/c2c(O)ccc3ccccc23)sc2nc3ccccc3n12`, the TGI in the test with MALME-3M melanoma, in the test on HT29 colon, with IGROV1 ovarian, in the test with 786-0 renal, in the test with SK-MEL-5 melanoma and with A549 NSCLC was above 100 µM each time. Moreover, the TGI with SN12C renal and with TK-10 renal was above 100 µM in each case.
With `CC(C)(CN1CCOCC1)C(=O)/C=C/c1ccc(/C=C/C(=O)C(C)(C)CN2CCOCC2)cc1`, the TGI in the test with HT29 colon is 1.88 µM; in the test on IGROV1 ovarian it was 4.47 µM; with 786-0 renal, 4.11 µM; in the test on SK-MEL-5 melanoma, 3.23 µM; with A549 NSCLC, 7.42 µM; in the test on SN12C renal, 3.57 µM. In the test with TK-10 renal, this compound returned a TGI of 3.62 µM.
Turning to `Cc1cc(C)nc(NS(=O)(=O)c2ccc(Nc3c4ccccc4nc4c(C(=O)Nc5ccc(S(=O)(=O)Nc6cc(C)on6)cc5)ccc(Cl)c34)cc2)n1`, the TGI in the test with MALME-3M melanoma was 86.5 µM; with HT29 colon, 47.8 µM; with 786-0 renal it was 34.1 µM; in the test on SN12C renal it was 63 µM; in the test on TK-10 renal, above 100 µM.
As to `O=c1nc(NC(c2ccccc2)(c2ccccc2)c2ccccc2)ccn1CCCl`, the TGI in the test with MALME-3M melanoma is 29.2 µM; with HT29 colon, 35 µM; in the test with IGROV1 ovarian it was 48.1 µM; in the test with 786-0 renal it was 32 µM; with A549 NSCLC, above 100 µM; with SN12C renal, 33 µM. Also, the TGI with TK-10 renal is 56.2 µM.
Consider `O=C1OC(c2ccccc2)(c2ccccc2)c2ccc3ccc(F)cc3c21`, for which the TGI in the test with MALME-3M melanoma, in the test with HT29 colon, in the test on IGROV1 ovarian, in the test with 786-0 renal, with SK-MEL-5 melanoma and in the test on A549 NSCLC was above 100 µM in each case. The TGI with SN12C renal and with TK-10 renal was above 100 µM each time.

(Values after PubChem BioAssay (NCI).)
